Assay results reported in ChEMBL document CHEMBL1143458, “An efficient synthesis of argifin: a natural product chitinase inhibitor with chemotherapeutic potential” (Bioorg Med Chem Lett, 2005).
pKi: −log10 of the molar value.

What was measured:
[1] = Maximum rate of metabolism of compound; type: ADME; settings: aspergillus fumigatus
Endochitinase B1 = Endochitinase B1 (Aspergillus fumigatus, UniProt Q873X9); assay: Inhibitory activity against Chitinase B1 (AfChiB1) using fuorometric assay with 4-methylumbelliferyl-b-D-N,N0-diacetylchitobiose as substrate
[2] = test system: CNC(=O)NC(=N)NCCC[C@@H]1NC(=O)[C@@H](C)NC(=O)C[C@@H](C(=O)O)NC(=O)C[C@@H](C(=O)O)NC(=O)[C@H](Cc2ccccc2)N(C)C1=O; assay: Michaelis constant for compound binding to Chitinase B1; settings: Aspergillus fumigatus

## CNC(=O)NC(=N)NCCC[C@@H]1NC(=O)[C@@H](C)NC(=O)C[C@@H](C(=O)O)NC(=O)C[C@@H](C(=O)O)NC(=O)[C@H](Cc2ccccc2)N(C)C1=O [ARGIFIN]
[1]
  Vmax: 2.7 nM/s
Endochitinase B1
  pKi: 7.77

## Endochitinase B1 (Aspergillus fumigatus) (from UniProt Q873X9)
[2]
  Km: 10.4 µM
